Laboratory results from patent US20120195488A1, “Methods and Compositions Related to Cellular Assays” (University of utah Research Foundation, priority 2009, published 2012).

How the values were obtained:
Type in all cases: cell-based
γH2AX = assay: Fraction of γH2AX positive cells in taxol treated MCF7 cells (multi-well immunofluorescence imaging)
Source text: (§1) Many cells (typically >1,000) over a very large field of view were imaged. At least two stainings were used simultaneously. An optional third staining, here propidium iodide (PI), was also used as a nuclear locator.
(§2) The cells were imaged in 3 channels which corresponded to the three stainings. The third channel was used for cell profiling. In a first data processing step, cells were automatically identified in the images by their signal and/or shape in one or both of the recorded channels. Alternatively, cells were identified using a nuclear counterstain and then the activator(s) were read. […] From the distributions S1(c) and S2(c), characteristic numbers were derived. For example (at the example of channel 1, same valid for channel 2).
Fraction of positive cells: F1=N1+/N
(§3) The imaging and analysis procedure were repeated for cells which were fixed at different time points t and under influence of different drug doses dd. For every condition (time point and drug dose), the parameters above were determined.
(§4) Hela, MCF7, as well as primary cells from a patient were cultured for growth in this assay. Cells were obtained and seeded initially at ˜100 cells per well/96 well plate . The cells were grown in DMEM, with 10% Fetal Falf Serum, ultra pure, along with 5% Pen/Strep. The cells after being plated were placed in an incubator at […]. with 5% CO2 and grown for a period of 28 hours to allow for adhesion and division . If the cell took to the plate and were growing normally they were allowed to continue for an additional 24 hours. […] Here, the experiment first staining for only one marker using a green label so that the read was unpolluted by any other color that could show cross reactivity with the green (as there is RED, PI staining the nucleus already, which has no cross reactivity), once the data was collected and the data satisfied that the independent signal was reproducible, a double staining was performed by adding the second marker and using a orange dye with a wavelength of 555. […]

p-ATM = assay: Average p-ATM signal per cell in taxol treated MCF7 cells
Source text: as §1, §2
Average signal of all cells: <S1>
as §3
as §4, with “hours. Cells were then treated with either Taxol, Doxirubicin, or Ionizing Radiation or a combination of all 3.” for “hours.”

MCF7 cells = assay: Total number of cells N in taxol treated MCF7 cells; settings: for killing of cells (total number of cells): all drug doses (10 nm to 5 um)
Source text: as §1, §2, §3
Hela, MCF7, as well as primary cells from a patient were cultured for growth in this assay. Cells were obtained and seeded initially at ˜100 cells per well/96 well plate . The cells were grown in DMEM, with 10% Fetal Falf Serum, ultra pure, along with 5% Pen/Strep. The cells after being plated were placed in an incubator at […]. with 5% CO2 and grown for a period of 28 hours to allow for adhesion and division . If the cell took to the plate and were growing normally they were allowed to continue for an additional 24 hours. Cells were then treated with either Taxol, Doxirubicin, or Ionizing Radiation or a combination of all 3. All drugs were added in the logarithmic titrations shown in the data at time point zero. The cells were then collected (fixed with −20 degree methanol for 7 minutes, washed with PBS, washed again and stored in PBS until the entire plate of titrations were finished. After collection, the nucleus of each cell was stained using PI (far RED) by adding PI for 15 minutes and then washing 3× the cells with sterile PBS . Once the nuclei had been stained, each well was stained for either phosphor ATM or gamma H2AX or both using primary antibodies at a dilution of 1:1000 in a PBS/Block mix for 1 hour at 37 degrees. The cell were then washed 3× with PBS and then treated with the appropriate secondary . Here, the experiment first staining for only one marker using a green label so that the read was unpolluted by any other color that could show cross reactivity with the green (as there is RED, PI staining the nucleus already, which has no cross reactivity), once the data was collected and the data satisfied that the independent signal was reproducible, a double staining was performed by adding the second marker and using a orange dye with a wavelength of 555. […]

CC(=O)O[C@H]1C(=O)[C@@]2(C)[C@H]([C@H](OC(=O)c3ccccc3)[C@]3(O)C[C@H](OC(=O)[C@H](O)[C@@H](NC(=O)c4ccccc4)c4ccccc4)C(C)=C1C3(C)C)[C@]1(OC(C)=O)CO[C@@H]1C[C@@H]2O [Taxol]
time point at which γH2AX fluorescence reaches its lowest point (γH2AX; 5 um dose): 12 h | Emax (γH2AX; Homo sapiens, all 4 doses 10 nm, 100 nm, 1 um and 5 um, 1 hour pulse, 4 hour post treatment time point, read-out: maximum response, induction rate of γH2AX (fraction of γH2AX positive cells)): ~100% | effective on a population (γH2AX; highest dose): 30% | time at which average p-ATM signal per cell is lowest (p-ATM; 5 uM): approximately 4 hours | p-ATM fluorescent signal, initial elevation (maximum) (p-ATM; 5 um dose): ~2300 a.u. | p-ATM fluorescent signal, lowest point (p-ATM; 5 um dose, within 4 hours): ~1000 a.u. | killing of the entire cell population (MCF7 cells; 5 um dose): does not kill the entire population | time point at which cell killing was most effective (MCF7 cells; all drug doses): 4 h | killing of cells (total number of cells) (MCF7 cells): all treatments were effective in killing cells | killing of cells (total number of cells) (MCF7 cells; listed as taxol): kill cells in a titration dependent fashion
